Key:
[1] = target: T1, human ETA receptor (Homo sapiens, UniProt P25101); assay: ETA receptor binding assay ([125I]-ET1, CHO cell membranes); conditions: cloned human ETA receptor, 25 pM [125I]-ET1, 25° C.
T1 construct: expressed in transfected cells; host or cells: CHO cells (membrane preparation)
T1 sequence (P25101 21-427): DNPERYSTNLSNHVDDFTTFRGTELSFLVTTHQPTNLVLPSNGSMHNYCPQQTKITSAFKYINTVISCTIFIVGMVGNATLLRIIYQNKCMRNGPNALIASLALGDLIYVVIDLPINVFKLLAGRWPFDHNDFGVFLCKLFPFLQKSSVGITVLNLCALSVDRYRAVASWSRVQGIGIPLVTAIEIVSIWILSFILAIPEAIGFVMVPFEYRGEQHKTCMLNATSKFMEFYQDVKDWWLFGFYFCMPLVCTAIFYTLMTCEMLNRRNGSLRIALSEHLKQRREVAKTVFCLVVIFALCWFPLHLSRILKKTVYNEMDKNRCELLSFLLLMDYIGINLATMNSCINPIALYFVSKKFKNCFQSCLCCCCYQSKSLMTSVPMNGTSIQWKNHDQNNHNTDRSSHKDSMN
Protocol: (§1) Cloned human ETA or ETB receptor-expressing CHO cells were employed for binding studies.
(§2) The ETA or ETB receptor-expressing CHO cells were grown in DmeM NUT MIX F12-medium (Gibco, No. 21331-020) with 10% fetal calf serum (PAA Laboratories GmbH, Linz, No. A15-022), 1 mM glutamine (Gibco No. 25030-024), 100 U/ml penicillin and 100 μg/ml streptomycin (Gibco [sic], Sigma No. P-0781). After 48 hours, the cells were washed with PBS and incubated with 0.05% trypsin-containing PBS at 37° C. for 5 minutes. This was followed by neutralization with medium, and the cells were collected by centrifugation at 300×g.
(§3) For the membrane preparation, the cells were adjusted to a concentration of 10^8 cells/ml of buffer (50 mM tris.HCL [sic] buffer, pH 7.4) and then disintegrated by ultrasound Branson Sonifier 250, 40-70 seconds/constant/output [sic] 20).
(§4) For the ETA and ETB receptor binding assay, the membranes were suspended in incubation buffer (50 mM tris-HCl, pH 7.4 with 5 mM MnCl2, 40 mg/ml Bacitracin and 0.2% BSA) in a concentration of 50 μg of protein per assay mixture and incubated with 25 pM [125I]-ET1 [sic] (ETA receptor assay) or 25 pM [125I]-ET3 [sic] (ETB receptor assay) at 25° C. in the presence and absence of test substance. The nonspecific binding was determined with 10^−7 M ET1. After 30 min, filtration through GF/B glass fiber filters (Whatman, England) in a Skatron cell harvester (Skatron, Lier, Norway) was carried out to separate free and bound radioligand, and the filters was washed with ice-cold tris-HCl buffer, pH 7.4 with 0.2% BSA. The radioactivity collected on the filters was quantified using a Packard 2200 CA liquid scintillation counter.
(§5) Receptor binding data were measured by the binding assay described above for the compounds listed below.

[2] = target: T2, human ETB receptor (Homo sapiens, UniProt P24530); assay: ETB receptor binding assay ([125I]-ET3, CHO cell membranes); conditions: cloned human ETB receptor, 25 pM [125I]-ET3, 25° C.
T2 construct: expressed in transfected cells; host or cells: CHO cells (membrane preparation)
T2 sequence (P24530 27-442): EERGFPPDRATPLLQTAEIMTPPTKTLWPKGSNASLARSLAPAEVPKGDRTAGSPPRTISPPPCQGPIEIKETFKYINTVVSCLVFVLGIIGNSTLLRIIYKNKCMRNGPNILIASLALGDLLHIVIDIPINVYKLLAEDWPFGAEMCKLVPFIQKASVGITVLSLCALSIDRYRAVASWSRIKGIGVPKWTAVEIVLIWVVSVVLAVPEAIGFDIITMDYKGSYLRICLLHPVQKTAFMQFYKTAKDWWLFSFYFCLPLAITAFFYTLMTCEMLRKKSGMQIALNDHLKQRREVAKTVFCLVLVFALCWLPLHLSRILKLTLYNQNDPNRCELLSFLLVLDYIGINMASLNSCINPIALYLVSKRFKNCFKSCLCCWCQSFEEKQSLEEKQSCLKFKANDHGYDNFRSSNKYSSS
Protocol: as §1, §2, §3, §4, §5

Compound | Ki [1] [nM] | Ki [2] [nM] | melting point [°C]
Cc1cc(C)nc(OC(C(=O)O)C(OCC(=O)N2Cc3ccccc3C(C)(C)C2)(c2ccccc2)c2ccccc2)n1 (centres unmarked) [Example 35, 2-(4,6-Dimethylpyrimidin-2-yloxy)-3-(2-oxo-2-(4,4-dimethyl-1,2,3,4-tetrahydroisoquinolin-2-yl)ethoxy)-3,3-diphenylpropionic acid] |  |  | 185 to 187
COc1cc2c(cc1OC)CN(C(=O)COC(c1ccccc1)(c1ccccc1)C(Oc1nc(C)cc(C)n1)C(=O)O)CC2 (centres unmarked) [Example 34, 2-(4,6-Dimethylpyrimidin-2-yloxy)-3-(2-oxo-2-(6,7-dimethoxy-1,2,3,4-tetrahydroisoquinolin-2-yl)ethoxy)-3,3-diphenylpropionic acid] |  |  | 145 to 148
CCCCN(CCCC)C(=O)COC(c1ccccc1)(c1ccccc1)C(Oc1nc(C)cc(OC)n1)C(=O)O (centres unmarked) [Compound I-349, 2-(4-Methyl-6-methoxy-2-pyrimidinyloxy)-3-(N,N-dibutylcarbamoylmethoxy)-3,3-diphenylpropionic acid] | 3 | 142 | 
CCCCN(CCCC)C(=O)COC(c1ccccc1)(c1ccccc1)C(Oc1nc(C)cc(C)n1)C(=O)O (centres unmarked) [Compound I-347, 2-(4,6-Dimethyl-2-pyrimidinyloxy)-3-(N,N-dibutylcarbamoylmethoxy)-3,3-diphenylpropionic acid] | 3.8 | 155 | 

Further compounds by falling Ki [1], results first:

Ki [1] [nM] | Ki [2] [nM] | melting point [°C] | Compound
1.6 | 10 |  | Cc1cc(C)nc(OC(C(=O)O)C(OCC(=O)N2CCc3ccccc3C2)(c2ccccc2)c2ccccc2)n1 (centres unmarked) [Compound I-307, 2-(4,6-Dimethyl-2-pyrimidinyloxy)-3-(2-oxo-2-(1,2,3,4-tetrahydroisoquinolin-2-yl)ethoxy)-3,3-diphenylpropionic acid]
1 | 12 |  | COc1cc(C)nc(OC(C(=O)O)C(OCC(=O)N2CCc3ccccc3C2)(c2ccccc2)c2ccccc2)n1 (centres unmarked) [Compound I-309, 2-(4-Methyl-6-methoxy-2-pyrimidinyloxy)-3-(2-oxo-2-(1,2,3,4-tetrahydroisoquinolin-2-yl)ethoxy)-3,3-diphenylpropionic acid]
0.4 | 142 |  | Cc1cc(C)nc(OC(C(=O)O)C(OCC(=O)N(C)c2ccccc2)(c2ccccc2)c2ccccc2)n1 (centres unmarked) [Compound I-109, 2-(4,6-Dimethyl-2-pyrimidinyloxy)-3-(N-methyl-N-phenylcarbamoylmethoxy)-3,3-diphenylpropionic acid]
0.3 | 109 |  | COc1cc(C)nc(OC(C(=O)O)C(OCC(=O)N(C)c2ccccc2)(c2ccccc2)c2ccccc2)n1 (centres unmarked) [Compound I-111, 2-(4-methyl-6-methoxy-2-pyrimidinyloxy)-3-(N-methyl-N-phenylcarbamoylmethoxy)-3,3-diphenylpropionic acid]
